Test results published in patent US11730712B2, “Functionalized long-chain hydrocarbon mono- and di-carboxylic acids and derivatives thereof, and their use for the prevention or treatment of disease” (ESPERVITA THERAPEUTICS, INC., priority 2021, dated 2023).

What was measured:
[1] = test system: Hep3B human hepatocarcinoma cells; assay: Cell proliferation assay (presto blue, 72 h); format: cell-based; details: for Hep3B cell proliferation compared to control, compound alone: 100 μM; for Hep3B cell proliferation compared to control, compound alone / IC50 / inhibition of Hep3B cell proliferation in combination with lenvatinib vs each agent alone / inhibition of Hep3B cell proliferation in combination with regorafenib vs individual effects / inhibition of Hep3B cell proliferation in combination with sorafenib vs each agent alone: 72 h; for IC50: Homo sapiens, Hep3B, read-out: Hep3B (IC50), anti-proliferation activity; for inhibition of Hep3B cell proliferation in combination with lenvatinib vs each agent alone: compound 100 μM + lenvatinib 0.5 μM; for inhibition of Hep3B cell proliferation in combination with regorafenib vs individual effects: compound 100 μM + regorafenib 1.5 μM; for inhibition of Hep3B cell proliferation in combination with sorafenib vs each agent alone: compound 100 μM + sorafenib 3 μM
Protocol: Cell cultures. Hep3B (ATCC) and Hepa1-6 (ATCC) cells were seeded in 96-well plates at a density of 3000 cells/well with complete media. On day 2, media in each well was aspirated and replaced with 100 μl of fresh complete media and cells were treated with or without Compound I-1, Compound I-32, Compound I1-84, and Compound I-85, in a concentration dependent manner. Then, cells were incubated in an incubator for 72 h. On day 5, 10 μl of presto blue (Invitrogen, cat #A13261) cell viability reagent was added in each 96-well plate and incubated at 37° C. for 1-2 h. After incubation, fluorescence was measured with an excitation/emission wavelength of 560/590 nm.
Proliferation assay. Hep3B (ATCC) and Hepa1-6 (ATCC) cells were seeded in 96-well plates at a density of 3000 cells/well with complete media. On day 2, media in each well was aspirated and replaced with 100 μl of fresh complete media and cells were treated with/without testing compounds in a concentration dependent manner. Then, cells were incubated in an incubator for 72 h. On day 5, 10 μl of presto blue (Invitrogen, cat #A13261) cell viability reagent was added in each 96-well plate and incubated at 37° C. for 1-2 h. After incubation, fluorescence was measured with an excitation/emission wavelength of 560/590 nm. Anti-proliferative combination effects of Compound I-1 or Compound I-32 and regorafenib were determined in Hep3B and Hepa1-6 cells. Drug combination interaction was determined by the Chou-Talalay method (23), which is based on well-known equations for different reaction sequences and mechanisms, and different types of inhibition. These equations provide the theoretical basis for the combination index (CI)-isobologram equation that allows quantitative determination of drug interactions, where CI<1, =1, and >1 indicate synergism, additive effect, and antagonism, respectively. CI is calculated based on in vitro measurements implemented in the Compusyn software (www.combosyn.com), a platform for drug combinations pharmacodynamics with automated simulations. The software calculates CI based on the Fractional Inhibition (Fa), which is the potency expressed by the average effect values for each drug concentrations as determined by in vitro experiments. The dose-effect data entries are utilized for automated computerized analysis by the Compusyn software.
Data entered was obtained by in vitro experiments performed as follows: Hep3B or Hepa 1-6 cells were plated in a 96-well format and cell proliferation rates were determined as described above. Cells were treated with 5 doses of each test agent alone at the following concentrations: compounds of the invention dosed at 1, 5, 10, 50, or 100 μM for both Hep3B and Hepa1-6 cells, regorafenib dosed at 0.015, 0.075, 0.15, 0.75, and 1.5 μM for Hep3B cells or 0.05, 0.25, 0.5, 2.5, 5 μM for Hepa 1-6 cells. […]. Data are shown as Fa-CI plots where CI is the combination index and Fa is fractional inhibition. Results were indicated as mean±standard deviation (SD). All bar diagrams and line graphs were prepared using Graph Pad Prism 8 software. Drug synergy was calculated using the CompuSyn software.
Methods: Hep3B cells (supplied by ATCC) and Hepa1-6 cells (supplied by ATCC) were seeded in 96-well plates at a density of 3000 cells/well with complete media. On day 2, the media in each well was aspirated and replaced with 100 μL of fresh complete media, and the cells were treated in a concentration dependent manner with either Compound I-1, Compound I-32, Compound I-84, Compound I-85, sorafenib, lenvatinib, Compound I-1 in combination with sorafenib. Compound I-1 in combination with lenvatinib, Compound I-32 in combination with sorafenib, or Compound I-32 in combination with lenvatinib. The cells were then incubated in an incubator at 37° C. for 72 h. On day 5, 10 μL of presto blue (Invitrogen, cat #A13261) cell viability reagent was added to each 96-well plate and incubated at 37° C. for 1-2 h. […]

[2] = Toxicokinetics in female rat plasma (4-day oral gavage study, Day 1); format: in vivo; details: for dose proportionality of increases in mean Cmax and AUC0-24: 100 to 300 mg/kg/day
Protocol: Bioanalytical and Toxicokinetic Analyses. Blood samples (approximately 0.3 mL) were collected from nonfasted toxicokinetic animals via a jugular vein on Day 1 of the dosing phase, as indicated in the following table. Samples were collected predose and approximately 1, 2, 4, and 24 hours postdose.
Blood was collected into tubes containing potassium (K2) EDTA as the anticoagulant. Samples were maintained on chilled cryoracks and were centrifuged within 1 hour of collection. Plasma was harvested into two approximately equal aliquots and stored on dry ice until placed in a freezer, set to maintain −60 to −80° C., until analyzed. Plasma samples were analyzed for Compound I-1 and Compound I-32 content using a generic Tier 1 qualified liquid chromatography-tandem mass spectrometry (LC-MS/MS) method.
In-Life Phase. Animals were dosed once daily for up to 4 days via oral gavage at a volume of 10 mL/kg. Animals in Group 2 and 3 were administered Compound I-1. Animals in Group 4 and 5 were administered Compound I-32. The control article for Group 1 was 1.5% (w/v) carboxymethyl cellulose+0.2% (v/v) Tween 20 in deionized (DI) water. The vehicle used to prepare Compound I-1 and Compound I-32 formulations was 3% (w/v) carboxymethyl cellulose+0.4% (v/v) Tween 20 in DI water.

Hep3B cells = assay: Drug interaction (combination) in Hep3B cell proliferation; format: cell-based
Protocol: FIGS. 41A-41B show drug interaction effect of Compound I-32 (FIG. 41A) and Compound I-1 (FIG. 41B) in combination with regorafenib in Hep3B cell proliferation. In FIG. 41A, “1+0.015 (μM)” means 1 μM Compound I-32+0.015 μM regorafenib, etc. In FIG. 41B, “1+0.015 (μM)” means 1 μM Compound I-1+0.015 μM regorafenib, etc.
In FIG. 44A, “1+0.03 (μM)” means 1 μM Compound I-1+0.03 μM sorafenib, etc. […] In FIG. 44B, “1+0.005 (μM)” means 1 μM Compound I-1+0.005 μM lenvatinib, etc. […] In FIG. 44C, “1+0.03 (μM)” means 1 μM Compound I-32+0.03 μM sorafenib, etc. […] In FIG. 44D, “1+0.005 (μM)” means 1 μM Compound I-32+0.005 μM lenvatinib, etc.

[3] = female rat plasma, 100 mg/kg/day oral gavage, Day 1

CC(C)(CCCCc1cccc(CCCCC(C)(C)C(=O)O)c1)C(=O)O [Compound I-32, 6-[3-(5-carboxy-5-methylhexyl)-phenyl]-2,2-dimethylhexanoic acid]
Hep3B cell proliferation compared to control, compound alone [1]: inhibited Hep3B cell proliferation compared to control
IC50 [1]: > 100 µM
synergism with sorafenib (CI), Hep3B cells ([1]; all tested concentrations: 1 μM and 0.05 μM, 5 μM and 0.15 μM, 10 μM and 0.3 μM, 50 μM and 1.5 μM, 100 μM and 3 μM): synergism
synergism with lenvatinib (CompuSyn CI), Hep3B cells ([1]; compound 5 μM and lenvatinib 0.025 μM): Modest synergism
inhibition of Hep3B cell proliferation in combination with lenvatinib vs each agent alone [1]: significantly greater inhibition of Hep3B cell proliferation
inhibition of Hep3B cell proliferation in combination with regorafenib vs individual effects [1]: greater inhibition of cell proliferation compared to their individual effects
inhibition of Hep3B cell proliferation in combination with sorafenib vs each agent alone [1]: significantly greater inhibition of Hep3B cell proliferation
synergism with lenvatinib (CompuSyn CI), Hep3B cells ([1]; compound and lenvatinib: 1 μM and 0.005 μM, 10 μM and 0.05 μM, 50 μM and 0.25 μM, 100 μM and 0.5 μM): significant synergism
Cmax ([2]; Wistar Han, plasma, oral, female rat, 300 mg/kg/day, Day 1, read-out: mean maximum observed concentration (Cmax)): 406 µg/mL
dose proportionality of increases in mean Cmax and AUC0-24 ([2]; female rat): approximately dose proportional
drug interaction effect in combination with sorafenib (Hep3B cells; at all tested concentrations): synergism
drug interaction effect in combination with lenvatinib (Hep3B cells; at various concentrations): synergism

CC(C)(CCCCc1ccc(CCCCC(C)(C)C(=O)O)cc1)C(=O)O [Compound I-1, 6-[4-(5-carboxy-5-methylhexyl)-phenyl]-2,2-dimethylhexanoic acid]
Hep3B cell proliferation compared to control, compound alone [1]: inhibited Hep3B cell proliferation compared to control
IC50 [1]: > 100 µM
synergism with sorafenib (CompuSyn CI), Hep3B cells ([1]; compound 5 μM and sorafenib 0.15 μM): Modest synergism
synergism with lenvatinib (CompuSyn CI), Hep3B cells ([1]; compound 10 μM and lenvatinib 0.05 μM): Moderate synergism
inhibition of Hep3B cell proliferation in combination with lenvatinib vs each agent alone [1]: significantly greater inhibition of Hep3B cell proliferation
inhibition of Hep3B cell proliferation in combination with regorafenib vs individual effects [1]: greater inhibition of cell proliferation compared to their individual effects
inhibition of Hep3B cell proliferation in combination with sorafenib vs each agent alone [1]: significantly greater inhibition of Hep3B cell proliferation
synergism with lenvatinib (CompuSyn CI), Hep3B cells ([1]; compound and lenvatinib: 50 μM and 0.25 μM, 100 μM and 0.5 μM): significant synergism
synergism with sorafenib (CompuSyn CI), Hep3B cells ([1]; compound and sorafenib: 1 μM and 0.03 μM, 50 μM and 1.5 μM, 100 μM and 3 μM): significant synergism
AUC0-24 [2, 3]: 5,460,000 h*ng/mL
Tmax [2, 3]: 2.00 h
Tmax ([2]; female rat plasma, 300 mg/kg/day oral gavage, Day 1): 1.00 h
dose proportionality of increases in mean Cmax and AUC0-24 ([2]; female rat): less than dose proportional
drug interaction effect in combination with lenvatinib (Hep3B cells; at various concentrations): synergism
drug interaction effect in combination with sorafenib (Hep3B cells; at various concentrations): synergism
